Results reported in article PMC7957578, “N-(1,3,4-Oxadiazol-2-yl)Benzamides as Antibacterial Agents against Neisseria gonorrhoeae” (International Journal of Molecular Sciences, 2021).
In brackets after ≈: the same amount, converted by molar mass. Read-outs that look alike come from different tables or passages of the source.

Assays:
[1] = tested on: E. coli BW25113 (wild-type strain); assay: MIC/MBC (CLSI broth microdilution) against E. coli BW25113 wild type; assay type: cell-based, Escherichia coli; conditions: E. coli BW25113 wild-type strain
Experimental: (§1) The minimum inhibitory concentrations (MICs) of the tested compounds and control drugs, linezolid, vancomycin, and gentamicin, were determined using the broth microdilution method according to the guidelines outlined by the Clinical and Laboratory Standards Institute (CLSI) against clinically relevant bacterial (Staphylococcus aureus, MRSA, Escherichia coli, Enterococcus faecalis and Enterococcus faecium strains. S. aureus, MRSA, E. coli, Enterococcus faecalis and Enterococcus faecium were grown aerobically overnight on tryptone soy agar (TSA) plates at 37° C. Afterwards, a bacterial solution equivalent to 0.5 McFarland standard was prepared and diluted in cation-adjusted Mueller–Hinton broth (CAMHB) (for S. aureus, MRSA, and E. coli) to achieve a bacterial concentration of about 5 × 10^5 CFU/mL. Enterococcus faecalis and Enterococcus faecium 0.5 McFarland standard solution was diluted in tryptone soy broth (TSB) to achieve a bacterial concentration of about 5 × 10^5 CFU/mL. Compounds and control drugs were added in the first row of 96-well plates and serially diluted with the corresponding media containing bacteria. Plates were then incubated as previously described. […] The minimum bactericidal concentration (MBC) was tested by spotting 4 µL from wells with no growth onto TSA plates. Plates were incubated at 37 ° C for at least 18 h before recording the MBC. The MBC was categorized as the lowest concentration that reduced bacterial growth by 99.9% [45, 46, 47].

[2] = tested on: N. gonorrhoeae strain 181; assay: MIC by broth microdilution against N. gonorrhoeae strain 181; assay type: cell-based, Neisseria gonorrhoeae; conditions: Neisseria gonorrhoeae; N. gonorrhoeae strain 181; read-out: MIC
Experimental: Briefly, bacteria were grown overnight on chocolate agar II at 37° C in the presence of 5% CO2. Afterwards, a bacterial suspension equivalent to 1.0 McFarland standard was prepared and diluted in brucella broth supplemented with yeast extract, neopeptone, hematin, pyridoxal, and NAD. Test agents were added in the first row of the 96-well plates and serially diluted along the plates. Plates were then incubated at 37° C in the presence of 5% CO2 for 24 h. […] Plates were then incubated at 37 ° C in the presence of 5% CO2 for 24 h. The MBC was categorized as the lowest concentration that reduced bacterial growth by 99.9% [45, 46, 47].

MRSA USA300 = assay: MIC/MBC (CLSI broth microdilution) against MRSA USA300; assay type: cell-based, methicillin-resistant Staphylococcus aureus; conditions: Staphylococcus aureus, MRSA USA300
Experimental: as §1

[3] = Caco-2 bidirectional permeability assay; assay type: in vitro ADME, human; conditions: human, Caco-2
Excerpt: (§2) Oral bioavailability is a highly important consideration when developing bioactive molecules as therapeutic agents. A critical factor of oral bioavailability is human intestinal absorption. The Caco-2 bidirectional permeability assay is the most widely used in vitro model for predicting if a bioactive molecule can have adequate systemic absorption. Thus, we selected HSGN-238 to act as a model to analyze the drug-like properties of newly synthesized N-(1,3,4-oxadiazol-2-yl)benzamides.
(§3) Assay and data analysis were performed by Eurofins Panlabs (MO, USA) according to a previously reported protocol. The apparent permeability coefficient (Papp) of the tested agents was calculated using the equation below: Papp(cm/s)=VR∗CR,end/Δt∗1/A∗(CD,mid−CR,mid), where VR is the volume of the receiver chamber. CR,end is the concentration of the test compound in the receiver chamber at the end time point, Δt is the incubation time, and A is the surface area of the cell monolayer. CD,mid is the calculated mid-point concentration of the test compound in the donor side, which is the mean value of the donor concentration at 0 minutes and the donor concentration at the end time point. CR,mid is the mid-point concentration of the test compound in the receiver side, which is one half of the receiver concentration at the end time point. Concentrations of the test compound were expressed as peak areas of the test compound.

Caco-2 bilayers = assay: Caco-2 bidirectional permeability assay; assay type: in vitro ADME, human; conditions: Caco-2 permeability classification
Excerpt: as §2, §3

[4] = tested on: human colorectal cells (Caco-2); assay: In vitro cytotoxicity, MTS assay; assay type: cell-based
Experimental: HSGN-237 and -238 were assayed for potential cytotoxicity against a human colorectal adenocarcinoma (Caco-2) cell line, as described previously. Briefly, tested compounds were incubated with caco-2 cells for 24 and 48 h. Then, the cells were incubated with MTS (3-(4,5-dimethylthiazol-2-yl)-5-(3-carboxymethoxyphenyl)-2-(4-sulfophenyl)-2H-tetrazolium) reagent for 4 h before measuring the absorbance values (OD490).
Figure 2 In vitro cytotoxicity assessment of HSGN-237 and -238 (tested in triplicate) against human colorectal cells (Caco-2) after (A) 24 h, and (B) 48 h, using the 3-(4,5-dimethylthiazol-2-yl)-5-(3-carboxymethoxyphenyl)-2-(4-sulfophenyl)-2H-tetrazolium (MTS) assay. Results are presented as percent viable cells relative to DMSO (negative control). Error bars represent standard deviation values. A two-way ANOVA, with post hoc Dunnet’s multiple comparisons test, determined the statistical difference between the values obtained for the compound and DMSO. Asterisks denote statistically significant differences between treatments of cells with either HSGN-237 or -238 as compared to DMSO-treated cells. The experiment was repeated 3 independent times.

O=C(Nc1nnc(-c2ccc(Cl)s2)o1)c1ccc(OC(F)(F)F)cc1 [HSGN-238, N-(5-(5-Chlorothiophen-2-yl)-1,3,4-oxadiazol-2-yl)-4-(trifluoromethoxy)benzamide]
MIC [1]: >8 µg/mL
MBC ([1]; Escherichia coli, read-out: MBC): > 8 µg/mL
MIC ([1]; Escherichia coli, read-out: MIC): > 8 µg/mL
MIC [2]: 0.125 µg/mL (≈ 0.321 µM)
MBC (MRSA USA300; read-out: MBC): 16 µg/mL (≈ 41.1 µM)
MIC (MRSA USA300; read-out: MIC): 0.25 µg/mL (≈ 0.641 µM)
Papp A→B ([3]; apical to basolateral): 82.3 ×10⁻⁶ cm/s
Papp B→A ([3]; basolateral to apical): 32.9 ×10⁻⁶ cm/s
Notes (permeability class) (Caco-2 bilayers): High Permeability
non-toxic concentration ([4]; Caco-2 cells, 24 and 48 h, MTS assay): up to 16 µg/mL
non-toxic concentration relative to MIC against N. gonorrhoeae ([4]; Caco-2 non-toxic concentration versus corresponding MIC): 128 times
